Results: patent US20070249670A1, “Glycogen Phosphorylase Inhibitor Compounds and Pharmaceutical Compositions Thereof” (SMITHKLINE BEECHAM CORPORATION, priority 2004, published 2007)
pIC50: −log10 of the molar value.

Target: T1, human liver glycogen phosphorylase a (HLGPa) (Homo sapiens, UniProt P06737)
T1 construct: creating a full-length cDNA fused at the 5′ end to codons for methionine-glycine-alanine-histidine; 6xHis tag (leader Met-Gly-Ala-His6-Gly-Gly) (N); made in house; host or cells: E. coli (bacterial expression plasmid pTXK1007LTev)
T1 sequence (P06737 2-847 limits assumed): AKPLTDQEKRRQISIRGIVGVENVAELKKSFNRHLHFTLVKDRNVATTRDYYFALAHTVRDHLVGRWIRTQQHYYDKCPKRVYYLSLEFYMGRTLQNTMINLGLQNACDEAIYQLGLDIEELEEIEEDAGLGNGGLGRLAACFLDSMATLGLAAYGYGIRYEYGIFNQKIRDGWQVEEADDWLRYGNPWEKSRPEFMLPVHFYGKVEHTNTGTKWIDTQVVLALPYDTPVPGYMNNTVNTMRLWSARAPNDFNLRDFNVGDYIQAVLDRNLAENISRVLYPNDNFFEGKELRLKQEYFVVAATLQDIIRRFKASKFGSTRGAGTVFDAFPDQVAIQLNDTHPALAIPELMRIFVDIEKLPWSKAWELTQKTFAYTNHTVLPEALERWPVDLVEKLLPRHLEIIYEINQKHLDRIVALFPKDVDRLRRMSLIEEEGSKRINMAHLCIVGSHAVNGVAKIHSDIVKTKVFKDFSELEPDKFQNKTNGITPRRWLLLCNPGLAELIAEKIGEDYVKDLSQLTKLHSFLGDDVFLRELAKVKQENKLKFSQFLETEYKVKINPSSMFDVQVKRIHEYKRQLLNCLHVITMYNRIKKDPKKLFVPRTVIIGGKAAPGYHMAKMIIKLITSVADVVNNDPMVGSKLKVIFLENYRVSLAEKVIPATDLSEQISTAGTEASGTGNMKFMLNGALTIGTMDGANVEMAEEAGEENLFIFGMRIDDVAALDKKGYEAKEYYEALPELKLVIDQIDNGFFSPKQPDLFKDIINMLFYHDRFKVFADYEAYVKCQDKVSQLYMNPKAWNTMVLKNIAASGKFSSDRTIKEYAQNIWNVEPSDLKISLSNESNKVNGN
Experiment: Human liver glycogen phosphorylase a enzymatic activity assay (coupled, fluorescent resorufin readout, with and without 10 mM glucose)
Format: biochemical
Conditions: human liver glycogen phosphorylase a enzymatic activity assay

pIC50	SMILES
4.83	CC[C@H](C)[C@H](NC(=O)c1c(NC(=O)Nc2c(C)cccc2Cl)sc2c1CCCC2)C(=O)O [Example 128, N-{[2-({[(2-chloro-6-methylphenyl)amino]carbonyl}amino)-4,5,6,7-tetrahydro-1-benzothien-3-yl]carbonyl}-L-isoleucine]
5.10	CC[C@H](C)[C@H](NC(=O)c1c(NC(=O)Nc2c(Cl)cccc2Cl)sc2c1CCCC2)C(=O)O [Example 129, N-{[2-({[(2,6-dichlorophenyl)amino]carbonyl}amino)-4,5,6,7-tetrahydro-1-benzothien-3-yl]carbonyl}-L-isoleucine]
4.74	Cc1cccc(Cl)c1NC(=O)Nc1sc2c(c1C(=O)N[C@@H](CC(C)C)C(=O)O)CCCC2 [Example 130, N-{[2-({[(2-chloro-6-methylphenyl)amino]carbonyl}amino)-4,5,6,7-tetrahydro-1-benzothien-3-yl]carbonyl}-L-leucine]
5.00	CC(C)C[C@H](NC(=O)c1c(NC(=O)Nc2c(Cl)cccc2Cl)sc2c1CCCC2)C(=O)O [Example 131, N-{[2-({[(2,6-dichlorophenyl)amino]carbonyl}amino)-4,5,6,7-tetrahydro-1-benzothien-3-yl]carbonyl}-L-leucine]
5.28	Cc1cccc(C)c1NC(=O)Nc1sc2c(c1C(=O)N[C@@H](CC(=O)O)C(=O)O)CCCC2 [Example 132, N-{[2-({[(2,6-dimethylphenyl)amino]carbonyl}amino)-4,5,6,7-tetrahydro-1-benzothien-3-yl]carbonyl}-L-aspartic acid]
5.62	Cc1cc(C)c(NC(=O)Nc2sc3c(c2C(=O)N[C@@H](CC(=O)O)C(=O)O)CCCC3)c(C)c1 [Example 133, N-[(2-{[(mesitylamino)carbonyl]amino}-4,5,6,7-tetrahydro-1-benzothien-3-yl)carbonyl]-L-aspartic acid]
5.44	Cc1cccc(Cl)c1NC(=O)Nc1sc2c(c1C(=O)N[C@@H](CC(=O)O)C(=O)O)CCCC2 [Example 134, N-{[2-({[(2-chloro-6-methylphenyl)amino]carbonyl}amino)-4,5,6,7-tetrahydro-1-benzothien-3-yl]carbonyl}-L-aspartic acid]
4.75	Cc1cccc(C(C)C)c1NC(=O)Nc1sc2c(c1C(=O)N[C@@H](CC(=O)O)C(=O)O)CCCC2 [Example 135, N-{[2-({[(2-isopropyl-6-methylphenyl)amino]carbonyl}amino)-4,5,6,7-tetrahydro-1-benzothien-3-yl]carbonyl}-L-aspartic acid]
5.34	CCc1cccc(CC)c1NC(=O)Nc1sc2c(c1C(=O)N[C@@H](CC(=O)O)C(=O)O)CCCC2 [Example 136, N-{[2-({[(2,6-diethylphenyl)amino]carbonyl}amino)-4,5,6,7-tetrahydro-1-benzothien-3-yl]carbonyl}-L-aspartic acid]
5.38	O=C(O)C[C@H](NC(=O)c1c(NC(=O)Nc2c(Cl)cccc2Cl)sc2c1CCCC2)C(=O)O [Example 137, N-{[2-({[(2,6-dichlorophenyl)amino]carbonyl}amino)-4,5,6,7-tetrahydro-1-benzothien-3-yl]carbonyl}-L-aspartic acid]
5.25	Cc1cccc(C)c1NC(=O)Nc1sc2c(c1C(=O)N[C@H](C(=O)O)C1CCCCC1)CCCC2 [Example 138, (2S)-cyclohexyl({[2-({[(2,6-dimethylphenyl)amino]carbonyl}amino)-4,5,6,7-tetrahydro-1-benzothien-3-yl]carbonyl}amino)acetic acid]
5.49	Cc1cccc(Cl)c1NC(=O)Nc1sc2c(c1C(=O)N[C@H](C(=O)O)C1CCCCC1)CCCC2 [Example 139, (2S)-({[2-({[(2-chloro-6-methylphenyl)amino]carbonyl}amino)-4,5,6,7-tetrahydro-1-benzothien-3-yl]carbonyl}amino)(cyclohexyl)acetic acid]
5.26	O=C(Nc1sc2c(c1C(=O)N[C@H](C(=O)O)C1CCCCC1)CCCC2)Nc1c(Cl)cccc1Cl [Example 140, (2S)-cyclohexyl({[2-({[(2,6-dichlorophenyl)amino]carbonyl}amino)-4,5,6,7-tetrahydro-1-benzothien-3-yl]carbonyl}amino)acetic acid]
5.06	Cc1ccccc1NC(=O)Nc1sc2ccccc2c1C(=O)N[C@H](C(=O)O)C1CCCCC1 [Example 141, (2S)-cyclohexyl({[2-({[(2-methylphenyl)amino]carbonyl}amino)-1-benzothien-3-yl]carbonyl}amino)acetic acid]
5.82	Cc1cccc(Cl)c1NC(=O)Nc1sc2ccccc2c1C(=O)N[C@H](C(=O)O)C1CCCCC1 [Example 142, (2S)-({[2-({[(2-chloro-6-methylphenyl)amino]carbonyl}amino)-1-benzothien-3-yl]carbonyl}amino)(cyclohexyl)acetic acid]
4.52	Cc1ccccc1NC(=O)Nc1cc2ccccc2cc1C(=O)N[C@H](C(=O)O)C1CCCCC1 [Example 143, (2S)-cyclohexyl{[3-({[(2-methylphenyl)amino]carbonyl}amino)-2-naphthoyl]amino}acetic acid]
4.77	Cc1ccccc1NC(=O)Nc1cc2ccccc2cc1C(=O)N[C@@H](CC1CCCCC1)C(=O)O [Example 144, 3-cyclohexyl-N-{[3-({[(2-methylphenyl)amino]carbonyl}amino)-2-naphthalenyl]carbonyl}-L-alanine]
6.23	Cc1cccc(C)c1NC(=O)Nc1cc2ccccc2cc1C(=O)N[C@@H](CC1CCCCC1)C(=O)O [Example 145, 3-cyclohexyl-N-{[3-({[(2,6-dimethylphenyl)amino]carbonyl}amino)-2-naphthalenyl]carbonyl}-L-alanine]
6.27	O=C(Nc1cc2ccccc2cc1C(=O)N[C@@H](CC1CCCCC1)C(=O)O)Nc1c(Cl)cccc1Cl [Example 146, 3-cyclohexyl-N-{[3-({[(2,6-dichlorophenyl)amino]carbonyl}amino)-2-naphthalenyl]carbonyl}-L-alanine]
4.54	Cc1noc(C)c1NC(=O)Nc1cc2ccccc2cc1C(=O)N[C@@H](CC(=O)O)C(=O)O [Example 147, N-{[3-({[(3,5-dimethyl-4-isoxazolyl)amino]carbonyl}amino)-2-naphthalenyl]carbonyl}-L-aspartic acid]
6.64	O=C(O)C[C@H](NC(=O)c1cc2ccccc2cc1NC(=O)Nc1c(Cl)cccc1Cl)C(=O)O [Example 148, N-{[3-({[(2,6-dichlorophenyl)amino]carbonyl}amino)-2-naphthalenyl]carbonyl}-L-aspartic acid]
5.30	O=C(O)C[C@H](NC(=O)c1cc2ccccc2cc1NC(=O)Nc1c(F)cccc1F)C(=O)O [Example 149, N-{[3-({[(2,6-difluorophenyl)amino]carbonyl}amino)-2-naphthalenyl]carbonyl}-L-aspartic acid]
5.81	O=C(O)C[C@H](NC(=O)c1cc2ccccc2cc1NC(=O)Nc1ccccc1Cl)C(=O)O [Example 151, N-{[3-({[(2-chlorophenyl)amino]carbonyl}amino)-2-naphthalenyl]carbonyl}-L-aspartic acid]
5.31	O=C(Nc1cc2ccccc2cc1C(=O)N[C@H](C(=O)O)C1CCCCC1)Nc1c(F)cccc1F [Example 153, (2S)-cyclohexyl({[3-({[(2,6-difluorophenyl)amino]carbonyl}amino)-2-naphthalenyl]carbonyl}amino)ethanoic acid]
